Laboratory results published in patent US20050054653A1, “Pteridine derivatives, method of producing them and their application” (Faustus Forschungs Cie. Translational Cancer Research GmbH, priority 2002, published 2005).

Tests used:
Type in all cases: cell-based
human cell line LXFL529L = assay: Proliferation assay (sulforhodamin B assay), growth inhibition of tumor cells; conditions: LXFL 529L
Procedure: The inhibition of the growth of tumor cells due to the compounds according to the invention was determined on the human cell line LXFL529L. As a proliferation assay the sulforhodamin B assay as described by Skehan et al. (J. Natl. Cancer Inst. 82:1107-1112 (1990)) was used.

COLO 205 = assay: Growth inhibition of human tumor cell line COLO 205; conditions: COLO 205 colon carcinoma
Description: (§1) FIG. 1 is a representation of the IC50 values of the growth inhibition when using the compounds E288, E289 and E499 on the human tumor cell lines COLO 205 and NCI-H460.
(§2) Further in-vitro results of the compounds according to the invention E288 (6-chloro-2-piperazino-4,7-dithiazolidino-pteridine) and E289 (6-methoxy-2-piperazino-4,7-dithiazolidino-pteridine) are summarized in the following in comparison to E499 (6-chloro-2-piperazino-4,7-dipyrrolidino-pteridine) (all IC50 figures are described in [μM]).
(§3) This includes the human cell lines A431 ([…]), OVCAR-3 (ovarian carcinoma), BT-549 and MCF-7 (mammary carcinoma), SK-MEL-28 and SK-MEL-5 (melanoma), SW 620 and HCT-15 (colon), A549 (lung carcinoma) as well as the glioblastoma cell line C6 of the rat.

NCI-H460 = assay: Growth inhibition of human tumor cell line NCI-H460; conditions: NCI-H460 bronchial carcinoma
Description: as §1, §2, §3

Row | SMILES | IC50 (human cell line LXFL529L) | IC50 (COLO 205) | IC50 (NCI-H460) | also measured
1 | CSc1nc2c(N3CCCC3)nc(N3CCNCC3)nc2nc1N1CCCC1 [E 294, 6-Methylthio-2-Piperazino-4,7-Dipyrrolidino-Pteridine] | 3 ± 0.3 µM |  |  | 
2 | COc1nc2c(N3CCCC3)nc(N3CCNCC3)nc2nc1N1CCCC1 [E 293, 6-Methoxy-2-Piperazino-4,7-Dipyrrolidino-Pteridine] | 3.4 ± 1 µM |  |  | 
3 | Clc1nc2c(N3CCCC3)nc(N3CCNCC3)nc2nc1N1CCCC1 [E499, 6-Chloro-2-Piperazino-4,7-Dipyrrolidino-Pteridine] |  |  |  | IC50 (COLO 205; Homo sapiens): 9.75 µM; IC50 (NCI-H460; Homo sapiens): 31.6 µM

Now from value to compound, other results behind:

Row | IC50 (human cell line LXFL529L) | IC50 (COLO 205) | IC50 (NCI-H460) | SMILES | also measured
4 |  | 9.64 µM | 13.9 µM | COc1nc2c(N3CCSC3)nc(N3CCNCC3)nc2nc1N1CCSC1 [E289, 6-Methoxy-2-Piperazino-4,7-Dithiazolidino-Pteridine] | 
5 |  | 6.19 µM | 18.2 µM | Clc1nc2c(N3CCSC3)nc(N3CCNCC3)nc2nc1N1CCSC1 [E288, 6-Chloro-2-Piperazino-4,7-Dithiazolidino-Pteridine] | 
